The values that follow are results of earlier work, collected in patent publication US20090239783A1, “SYNERGISTIC EFFECTS OF COMBINED ADMINISTRATION OF MIRTAZAPINE AND A STIMULANT COMPOUND” (priority 2004, published 2009).

The target of one series is histamine (H1) (Homo sapiens, UniProt P35367).

Molecules are shown by their SMILES.

Chain of histamine (H1) (P35367 whole entry): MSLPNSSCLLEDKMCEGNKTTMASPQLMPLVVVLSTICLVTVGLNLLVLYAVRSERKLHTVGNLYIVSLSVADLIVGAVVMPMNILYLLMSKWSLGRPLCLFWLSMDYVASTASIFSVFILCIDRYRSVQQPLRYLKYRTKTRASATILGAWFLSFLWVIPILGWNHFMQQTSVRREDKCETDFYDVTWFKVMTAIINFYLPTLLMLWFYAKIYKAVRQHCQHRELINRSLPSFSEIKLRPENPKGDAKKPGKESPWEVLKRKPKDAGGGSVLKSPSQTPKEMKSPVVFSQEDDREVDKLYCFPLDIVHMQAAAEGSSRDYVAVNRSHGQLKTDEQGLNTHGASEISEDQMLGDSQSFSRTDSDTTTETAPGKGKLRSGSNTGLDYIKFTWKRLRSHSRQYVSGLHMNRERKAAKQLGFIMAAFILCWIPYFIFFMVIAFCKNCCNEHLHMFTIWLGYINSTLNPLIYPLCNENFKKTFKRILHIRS

For `CN1CCN2c3ncccc3Cc3ccccc3C2C1` (stereo not shown) [Mirtazapine, 1,2,3,4,10,14b-hexahydro-2-methylpyrazino [2,1-a] pyrido [2,3-c] benzazepine], the solubility in water result is recorded as “slightly soluble”. Also, in the series with muscarinic, the muscarinic anticholinergic properties result was “very weak”. Also, the “affinity for 5-HT1 receptors” value with 5-HT1 receptors is recorded as “weak”. In addition, the “histamine (H1) antagonist properties” value at histamine (H1) is “very weak”.
